Measurements: US20240059671A1, “TYROSINE KINASE 2 (TYK2) DEGRADATION COMPOUNDS AND METHODS OF USE” (CULLGEN (SHANGHAI), INC., priority 2020, published 2024)

Molecular target: TYK2 (Homo sapiens, UniProt P29597)
Assay: TYK2 protein degradation in MOLT-4 cells by immunoblotting
Type: cell-based
Design: endogenous in cells; host or cells: MOLT-4
Details: MOLT-4 cells, 24 hours
Procedure, shortened: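 Percent TYK2 degradation came from densitometry of chemiluminescent immunoblots of RIPA lysates. Before lysis, MOLT-4 cells had been treated for 24 h with each compound at 0.5 or 5 μM.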

Chain of TYK2 (P29597 whole entry): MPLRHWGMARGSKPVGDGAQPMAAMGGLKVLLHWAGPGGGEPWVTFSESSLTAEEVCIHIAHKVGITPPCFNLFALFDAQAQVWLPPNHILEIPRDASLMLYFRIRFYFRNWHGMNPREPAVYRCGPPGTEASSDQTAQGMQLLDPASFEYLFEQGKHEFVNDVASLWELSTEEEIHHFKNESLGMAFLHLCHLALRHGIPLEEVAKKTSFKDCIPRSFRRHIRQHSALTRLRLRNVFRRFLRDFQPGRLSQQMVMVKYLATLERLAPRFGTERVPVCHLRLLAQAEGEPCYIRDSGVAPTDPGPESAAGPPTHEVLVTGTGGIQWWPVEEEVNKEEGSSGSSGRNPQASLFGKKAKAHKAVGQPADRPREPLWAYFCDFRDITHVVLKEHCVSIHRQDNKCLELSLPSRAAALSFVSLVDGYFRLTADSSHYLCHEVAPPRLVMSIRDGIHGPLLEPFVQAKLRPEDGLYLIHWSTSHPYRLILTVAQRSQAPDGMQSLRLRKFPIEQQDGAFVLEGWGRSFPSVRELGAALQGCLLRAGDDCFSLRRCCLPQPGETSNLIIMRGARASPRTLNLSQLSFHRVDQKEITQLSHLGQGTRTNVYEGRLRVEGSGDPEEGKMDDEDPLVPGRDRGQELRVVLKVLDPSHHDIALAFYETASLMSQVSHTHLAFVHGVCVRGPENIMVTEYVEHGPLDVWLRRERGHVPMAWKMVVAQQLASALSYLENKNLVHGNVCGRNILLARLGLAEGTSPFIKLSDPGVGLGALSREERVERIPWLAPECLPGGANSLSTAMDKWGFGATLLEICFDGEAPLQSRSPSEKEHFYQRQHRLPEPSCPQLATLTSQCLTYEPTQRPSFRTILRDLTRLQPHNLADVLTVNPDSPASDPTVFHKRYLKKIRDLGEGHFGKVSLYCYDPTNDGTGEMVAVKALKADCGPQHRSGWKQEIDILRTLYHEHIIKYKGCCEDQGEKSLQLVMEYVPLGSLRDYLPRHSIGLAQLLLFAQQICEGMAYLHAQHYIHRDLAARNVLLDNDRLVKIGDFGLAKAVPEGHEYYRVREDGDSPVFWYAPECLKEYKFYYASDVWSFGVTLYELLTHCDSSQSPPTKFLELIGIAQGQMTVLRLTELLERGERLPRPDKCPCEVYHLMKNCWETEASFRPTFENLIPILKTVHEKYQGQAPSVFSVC

Row | Compound | TYK2 Degradation (MOLT-4, 0.5 μM) | TYK2 Degradation (0.5 μM) [%] | TYK2 Degradation (5 μM) [%] | TYK2 Degradation (MOLT-4, 5 μM)
1 | CNC(=O)c1nnc(NC(=O)CNC(=O)CNC(=O)C[C@H](NC(=O)[C@@H]2C[C@@H](O)CN2C(=O)[C@@H](NC(=O)C2(F)CC2)C(C)(C)C)c2ccc(-c3scnc3C)cc2)cc1Nc1cccc(-c2ncn(C)n2)c1OC [CPD-086, 6-(2-(2-((S)-3-((2S,4R)-1-((S)-2-(1-Fluorocyclopropane-1-carboxamido)-3,3-dimethylbutanoyl)-4-hydroxypyrrolidine-2-carboxamido)-3-(4-(4-methylthiazol-5-yl)phenyl)propanamido)acetamido)acetamido)-4-((2-methoxy-3-(1-methyl-1H-1,2,4-triazol-3-yl)phenyl)amino)-N-methylpyridazine-3-carboxamide] | C (C: ≤20% TYK2 degradation) | – | – | –
2 | CNC(=O)c1nnc(NC(=O)C2CC2)cc1Nc1cccc(-c2ncn(CCNC(=O)COCCOCC(=O)N[C@H](C(=O)N3C[C@H](O)C[C@H]3C(=O)NCc3ccc(-c4scnc4C)cc3)C(C)(C)C)n2)c1OC [CPD-068, 6-(Cyclopropanecarboxamido)-4-((3-(1-((S)-13-((2S,4R)-4-hydroxy-2-((4-(4-methylthiazol-5-yl)benzyl)carbamoyl)pyrrolidine-1-carbonyl)-14,14-dimethyl-4,11-dioxo-6,9-dioxa-3,12-diazapentadecyl)-1H-1,2,4-triazol-3-yl)-2-methoxyphenyl)amino)-N-methylpyridazine-3-carboxamide] | – | ≤20 | ≤20 | –
3 | CNC(=O)c1nnc(NC(=O)CNC(=O)CNc2ccc3c(c2)C(=O)N(C2CCC(=O)NC2=O)C3=O)cc1Nc1cccc(-c2ncn(C)n2)c1OC (stereo not shown) [CPD-054, 6-(2-(2-((2-(2,6-Dioxopiperidin-3-yl)-1,3-dioxoisoindolin-5-yl)amino)acetamido)acetamido)-4-((2-methoxy-3-(1-methyl-1H-1,2,4-triazol-3-yl)phenyl)amino)-N-methylpyridazine-3-carboxamide] | – | ≤20 | ≤20 | –
4 | CNC(=O)c1nnc(NC(=O)CNC(=O)COc2cc(-c3scnc3C)ccc2CNC(=O)[C@@H]2C[C@@H](O)CN2C(=O)[C@@H](NC(=O)C2(F)CC2)C(C)(C)C)cc1Nc1cccc(-c2ncn(C)n2)c1OC [CPD-101, 6-(2-(2-(2-(((2S,4R)-1-((S)-2-(1-Fluorocyclopropane-1-carboxamido)-3,3-dimethylbutanoyl)-4-hydroxypyrrolidine-2-carboxamido)methyl)-5-(4-methylthiazol-5-yl)phenoxy)acetamido)acetamido)-4-((2-methoxy-3-(1-methyl-1H-1,2,4-triazol-3-yl)phenyl)amino)-N-methylpyridazine-3-carboxamide] | C (C: ≤20% TYK2 degradation) | – | – | C (C: ≤20% TYK2 degradation)
5 | CNC(=O)c1nnc(NC(=O)C2CC2)cc1Nc1cccc(-c2ncn(CCNC(=O)CCOCCOCCOCCOCCNc3ccc4c(c3)C(=O)N(C3CCC(=O)NC3=O)C4=O)n2)c1OC (stereo not shown) [CPD-021, 6-(Cyclopropanecarboxamido)-4-((3-(1-(1-((2-(2,6-dioxopiperidin-3-yl)-1,3-dioxoisoindolin-5-yl)amino)-15-oxo-3,6,9,12-tetraoxa-16-azaoctadecan-18-yl)-1H-1,2,4-triazol-3-yl)-2-methoxyphenyl)amino)-N-methylpyridazine-3-carboxamide] | – | ≤20 | ≤20 | –
6 | CNC(=O)c1nnc(Nc2ccc(N3CCN(C(=O)CC(=O)N[C@H](C(=O)N4C[C@H](O)C[C@H]4C(=O)NCc4ccc(-c5scnc5C)cc4)C(C)(C)C)CC3)cn2)cc1Nc1cccc(-c2ncn(C)n2)c1OC [CPD-111, 6-((5-(4-(3-(((S)-1-((2S,4R)-4-Hydroxy-2-((4-(4-methylthiazol-5-yl)benzyl)carbamoyl)pyrrolidin-1-yl)-3,3-dimethyl-1-oxobutan-2-yl)amino)-3-oxopropanoyl)piperazin-1-yl)pyridin-2-yl)amino)-4-((2-methoxy-3-(1-methyl-1H-1,2,4-triazol-3-yl)phenyl)amino)-N-methylpyridazine-3-carboxamide] | B (B: <60% TYK2 degradation, and >20% TYK2 degradation) | – | – | B (B: <60% TYK2 degradation, and >20% TYK2 degradation)
7 | CNC(=O)c1nnc(NC(=O)CNC(=O)CCOCCOCCC(=O)N[C@H](C(=O)N2C[C@H](O)C[C@H]2C(=O)NCc2ccc(-c3scnc3C)cc2)C(C)(C)C)cc1Nc1cccc(-c2ncn(C)n2)c1OC [CPD-028, 6-((S)-15-((2S,4R)-4-Hydroxy-2-((4-(4-methylthiazol-5-yl)benzyl)carbamoyl)pyrrolidine-1-carbonyl)-16,16-dimethyl-4,13-dioxo-7,10-dioxa-3,14-diazaheptadecanamido)-4-((2-methoxy-3-(1-methyl-1H-1,2,4-triazol-3-yl)phenyl)amino)-N-methylpyridazine-3-carboxamide] | – | ≤20 | ≤20 | –
8 | CNC(=O)c1nnc(NC(=O)C2CC2)cc1Nc1cccc(-c2ncn(CCNC(=O)CCCCC(=O)N[C@H](C(=O)N3C[C@H](O)C[C@H]3C(=O)NCc3ccc(-c4scnc4C)cc3)C(C)(C)C)n2)c1OC [CPD-077, N^1-(2-(3-(3-((6-(Cyclopropanecarboxamido)-3-(methylcarbamoyl)pyridazin-4-yl)amino)-2-methoxyphenyl)-1H-1,2,4-triazol-1-yl)ethyl)-N^6-((S)-1-((2S,4R)-4-hydroxy-2-((4-(4-methylthiazol-5-yl)benzyl)carbamoyl)pyrrolidin-1-yl)-3,3-dimethyl-1-oxobutan-2-yl)adipamide] | – | ≤20 | ≤20 | –
9 | CNC(=O)c1nnc(NC(=O)C2CC2)cc1Nc1cccc(-c2ncn(CCNC(=O)CNc3ccc4c(c3)C(=O)N(C3CCC(=O)NC3=O)C4=O)n2)c1OC (stereo not shown) [CPD-013, 6-(Cyclopropanecarboxamido)-4-((3-(1-(2-(2-((2-(2,6-dioxopiperidin-3-yl)-1,3-dioxoisoindolin-5-yl)amino)acetamido)ethyl)-1H-1,2,4-triazol-3-yl)-2-methoxyphenyl)amino)-N-methylpyridazine-3-carboxamide] | – | ≤20 | – | –

Next, values leading:

Row | TYK2 Degradation (MOLT-4, 0.5 μM) | TYK2 Degradation (0.5 μM) [%] | TYK2 Degradation (5 μM) [%] | TYK2 Degradation (MOLT-4, 5 μM) | Compound
10 | – | ≤20 | – | – | CNC(=O)c1nnc(NC(=O)C2CC2)cc1Nc1cccc(-c2ncn(CCNC(=O)CCOCCOCCNc3ccc4c(c3)C(=O)N(C3CCC(=O)NC3=O)C4=O)n2)c1OC (stereo not shown) [CPD-019, 6-(Cyclopropanecarboxamido)-4-((3-(1-(2-(3-(2-(2-((2-(2,6-dioxopiperidin-3-yl)-1,3-dioxoisoindolin-5-yl)amino)ethoxy)ethoxy)propanamido)ethyl)-1H-1,2,4-triazol-3-yl)-2-methoxyphenyl)amino)-N-methylpyridazine-3-carboxamide]
11 | A (A: ≥60% TYK2 degradation) | – | – | A (A: ≥60% TYK2 degradation) | CNC(=O)c1nnc(NC(=O)CNC(=O)CCCCCCCCCCOc2cc(-c3scnc3C)ccc2CNC(=O)[C@@H]2C[C@@H](O)CN2C(=O)[C@@H](NC(=O)C2(F)CC2)C(C)(C)C)cc1Nc1cccc(-c2ncn(C)n2)c1OC [CPD-110, 6-(2-(11-(2-(((2S,4R)-1-((S)-2-(1-fluorocyclopropane-1-carboxamido)-3,3-dimethylbutanoyl)-4-hydroxypyrrolidine-2-carboxamido)methyl)-5-(4-methylthiazol-5-yl)phenoxy)undecanamido)acetamido)-4-((2-methoxy-3-(1-methyl-1H-1,2,4-triazol-3-yl)phenyl)amino)-N-methylpyridazine-3-carboxamide]
12 | A (A: ≥60% TYK2 degradation) | – | – | A (A: ≥60% TYK2 degradation) | CNC(=O)c1nnc(NC(=O)CNC(=O)CCCCCCCC(=O)N[C@H](C(=O)N2C[C@H](O)C[C@H]2C(=O)N[C@@H](C)c2ccc(-c3scnc3C)cc2)C(C)(C)C)cc1Nc1cccc(-c2ncn(C)n2)c1OC [CPD-084, N1-((S)-1-((2S,4R)-4-hydroxy-2-(((S)-1-(4-(4-methylthiazol-5-yl)phenyl)ethyl)carbamoyl)pyrrolidin-1-yl)-3,3-dimethyl-1-oxobutan-2-yl)-N9-(2-((5-((2-methoxy-3-(1-methyl-1H-1,2,4-triazol-3-yl)phenyl)amino)-6-(methylcarbamoyl)pyridazin-3-yl)amino)-2-oxoethyl)nonanediamide]
13 | – | ≤20 | ≤20 | – | CNC(=O)c1nnc(NC(=O)CNC(=O)CCCNc2ccc3c(c2)C(=O)N(C2CCC(=O)NC2=O)C3=O)cc1Nc1cccc(-c2ncn(C)n2)c1OC (stereo not shown) [CPD-056, 6-(2-(4-((2-(2,6-Dioxopiperidin-3-yl)-1,3-dioxoisoindolin-5-yl)amino)butanamido)acetamido)-4-((2-methoxy-3-(1-methyl-1H-1,2,4-triazol-3-yl)phenyl)amino)-N-methylpyridazine-3-carboxamide]
14 | – | 40 | ≤20 | – | CNC(=O)c1nnc(NC(=O)C2CC2)cc1Nc1cccc(-c2ncn(CCNC(=O)CCOCCOCCOCCOCCOCCNc3ccc4c(c3)C(=O)N(C3CCC(=O)NC3=O)C4=O)n2)c1OC (stereo not shown) [CPD-022, 6-(Cyclopropanecarboxamido)-4-((3-(1-(1-((2-(2,6-dioxopiperidin-3-yl)-1,3-dioxoisoindolin-5-yl)amino)-18-oxo-3,6,9,12,15-pentaoxa-19-azahenicosan-21-yl)-1H-1,2,4-triazol-3-yl)-2-methoxyphenyl)amino)-N-methylpyridazine-3-carboxamide]
